Values of other authors, collected in patent US20050142225A1, “Stabilised pharmaceutical compositions on the basis of polyoxyethlated castor oil and method for manufacturing the same” (Pliva-Lachema A.S., priority 2003, published 2005).
Like-named read-outs stand apart in the source and are kept apart here.

## CC(=O)O[C@H]1C(=O)[C@@]2(C)[C@H]([C@H](OC(=O)c3ccccc3)[C@]3(O)C[C@H](OC(=O)[C@H](O)[C@@H](NC(=O)c4ccccc4)c4ccccc4)C(C)=C1C3(C)C)[C@]1(OC(C)=O)CO[C@@H]1C[C@@H]2O [taxol, paclitaxel]
Composition with Cremophor EL, without an acid (pH of 9.1), after 7 days at 40° C.
  content of taxol: 86,7%
Composition with pH adjusted by acetic acid to 6.7, after 7 days
  content of taxol: 97,5%
Composition with pH adjusted by citric acid to 6.2, after 7 days
  content of taxol: 96,6%
